Measured values from ChEMBL document CHEMBL4420076, “Amylin and calcitonin receptor agonist” (2017).
Numbered stars: 1 amine (or outer) side, 2 acyl side, 3 side chain; on linkers, the order of the positions; unused ones are H or OH. Side chains are listed from the residue outwards. Peptide text beside a SMILES is read from it. * marks the point of attachment. C20 diacid = O=C(O)CCCCCCCCCCCCCCCCCCC(=O)*; γGlu = O=C(O)[C@H](CCC(=O)[*:2])N[*:1]; AEEA = NCCOCCOCC(=O)O

What was measured:
[1] = tested on: Rattus norvegicus; assay: Reduction in food intake in Sprague-Dawley rat at 3 nmol/kg measured 0 to 24 hrs post dose relative to control; format: functional; design: scale not given: the % may be the effect or the level left
[2] = tested on: Rattus norvegicus; assay: Reduction in food intake in Sprague-Dawley rat at 3 nmol/kg measured 24 to 48 hrs post dose relative to control; format: functional; design: scale not given: the % may be the effect or the level left
[3] = target: T1, Amylin receptor AMY3; CALCR/RAMP3 (Homo sapiens, UniProt O60896+P30988); assay: Agonist activity at human amylin receptor expressed in BHK570 cells co-expressing RAMP3 assessed as increase in intracellular cAMP concentration incubated for 3 hrs in absence of albumin by CRE luciferase reporter gene assay; format: functional, cell-based
T1 sequence (P30988 whole entry): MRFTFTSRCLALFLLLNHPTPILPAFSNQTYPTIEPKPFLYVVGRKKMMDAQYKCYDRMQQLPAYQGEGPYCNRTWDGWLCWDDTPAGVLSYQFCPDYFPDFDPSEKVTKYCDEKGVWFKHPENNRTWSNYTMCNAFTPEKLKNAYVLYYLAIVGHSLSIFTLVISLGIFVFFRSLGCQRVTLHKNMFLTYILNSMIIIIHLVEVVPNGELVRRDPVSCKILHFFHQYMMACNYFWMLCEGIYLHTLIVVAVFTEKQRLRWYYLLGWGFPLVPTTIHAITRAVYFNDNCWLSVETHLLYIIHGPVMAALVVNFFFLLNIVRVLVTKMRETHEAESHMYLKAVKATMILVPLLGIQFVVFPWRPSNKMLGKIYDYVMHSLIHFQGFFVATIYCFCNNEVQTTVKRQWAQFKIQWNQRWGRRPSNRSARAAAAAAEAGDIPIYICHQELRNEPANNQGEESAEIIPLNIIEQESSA
T1 sequence (O60896 whole entry): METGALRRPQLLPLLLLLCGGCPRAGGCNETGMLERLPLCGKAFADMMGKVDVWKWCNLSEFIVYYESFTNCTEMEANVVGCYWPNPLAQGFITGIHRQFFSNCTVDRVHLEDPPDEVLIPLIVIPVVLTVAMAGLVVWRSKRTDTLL

[4] = target: T2, Calcitonin receptor (Homo sapiens, UniProt P30988); assay: Agonist activity at human calcitonin receptor expressed in BHK570 cells assessed as increase in intracellular cAMP concentration incubated for 3 hrs in absence of albumin by CRE luciferase reporter gene assay; format: functional, cell-based
T2 sequence (P30988 whole entry): T1 sequence (P30988 whole entry)

[5] = target: T2, Calcitonin receptor; assay: Agonist activity at human calcitonin receptor expressed in BHK570 cells assessed as increase in intracellular cAMP concentration incubated for 3 hrs in presence of 10% FBS by CRE luciferase reporter gene assay; format: functional, cell-based
[6] = Stability in pH 7.5 buffer assessed as lag time for fibril formation at 1 uM by Thioflavin T based fluorescence assay; format: physicochemical; settings: pH 7.5, 1 µM
[7] = Stability in pH 7.5 buffer assessed as compound recovery at 1 uM by Thioflavin T based fluorescence assay; format: physicochemical; settings: read-out: Drug recovery
[8] = Solubility in 100 mM glycylglycine buffer at pH 3.0 incubated for 18 hrs by UPLC analysis; format: physicochemical
[9] = Solubility in 100 mM glycylglycine buffer at pH 4.0 incubated for 18 hrs by UPLC analysis; format: physicochemical
[10] = Solubility in 100 mM glycylglycine buffer at pH 5.0 incubated for 18 hrs by UPLC analysis; format: physicochemical
[11] = Solubility in 100 mM bistrispropane buffer at pH 7.5 incubated for 18 hrs by UPLC analysis; format: physicochemical
[12] = Solubility in 100 mM bistrispropane buffer at pH 8.0 incubated for 18 hrs by UPLC analysis; format: physicochemical
[13] = target: T1, Amylin receptor AMY3; CALCR/RAMP3; assay: Displacement of [125I]-labeled rat amylin from human amylin receptor expressed in BHK tkts13 whole cells co-expressing RAMP3 incubated for 60 mins by scintillation proximity assay; format: cell-based
[14] = target: T2, Calcitonin receptor; assay: Displacement of [125I]-labeled human calcitonin from human calcitonin receptor expressed in BHK tkts13 whole cells incubated for 60 mins by scintillation proximity assay; format: cell-based
[15] = target: T1, Amylin receptor AMY3; CALCR/RAMP3; assay: Agonist activity at human amylin receptor expressed in BHK570 cells co-expressing RAMP3 assessed as increase in intracellular cAMP concentration incubated for 3 hrs in presence of 10% FBS by CRE luciferase reporter gene assay; format: functional, cell-based
[16] = Solubility in 100 mM bistrispropane buffer at pH 6.0 incubated for 18 hrs by UPLC analysis; format: physicochemical
[17] = Solubility in 100 mM bistrispropane buffer at pH 6.5 incubated for 18 hrs by UPLC analysis; format: physicochemical
[18] = Solubility in 100 mM bistrispropane buffer at pH 7.0 incubated for 18 hrs by UPLC analysis; format: physicochemical
[19] = target: T1, Amylin receptor AMY3; CALCR/RAMP3; assay: Displacement of [125I]-labeled rat amylin from human amylin receptor expressed in BHK570 cell membranes co-expressing RAMP3 incubated for 120 mins by scintillation proximity assay
[20] = target: T2, Calcitonin receptor; assay: Displacement of [125I]-labeled human calcitonin from human calcitonin receptor expressed in BHK tkts13 cell membranes incubated for 1 hr by scintillation proximity assay

Row | EC50 [3] | EC50 [4] | EC50 [5] | Time [6] | remaining at 1 µM [7] | solubility at 18 h [8] | solubility at 18 h [9] | solubility at 18 h [10] | solubility at 18 h [11] | solubility at 18 h [12] | IC50 [13] | IC50 [14] | EC50 [15] | solubility at 18 h [16] | solubility at 18 h [17] | solubility at 18 h [18] | IC50 [19] | IC50 [20] | Structure (SMILES) | Activity [1] | Activity [2]
1 | 68 pM | 36 pM | 113 pM | 0.3 h | 0% | ≥ 200 µM | ≥ 200 µM | ≥ 200 µM | ≥ 200 µM | ≥ 200 µM | 5440 pM | 1270 pM |  |  |  |  |  |  | CC(C)C[C@H](NC(=O)CNC(=O)[C@H](CO)NC(=O)[C@H](C)N)C(=O)N[C@@H](CO)C(=O)N[C@H](C(=O)N[C@@H](C)C(=O)N[C@@H](C)C(=O)N[C@@H](CC(C)C)C(=O)NCC(=O)N[C@@H](CCCNC(=N)N)C(=O)N[C@@H](CC(C)C)C(=O)N[C@@H](CO)C(=O)N[C@@H](CCC(N)=O)C(=O)N[C@@H](CCC(=O)O)C(=O)N[C@@H](CC(C)C)C(=O)N[C@@H](Cc1cnc[nH]1)C(=O)N[C@@H](CCC(=O)O)C(=O)N[C@@H](CC(C)C)C(=O)N[C@@H](CCC(N)=O)C(=O)N[C@H](C(=O)N[C@@H](Cc1ccc(O)cc1)C(=O)N1CCC[C@H]1C(=O)N[C@@H](CCCNC(=N)N)C(=O)N[C@H](C(=O)N[C@@H](CCC(=O)O)C(=O)N[C@H](C(=O)NCC(=O)N[C@@H](CO)C(=O)N[C@@H](CCCCNC(=O)CC[C@H](NC(=O)CCCCCCCCCCCCCCCCCCC(=O)O)C(=O)O)C(=O)N[C@H](C(=O)N[C@@H](Cc1ccc(O)cc1)C(N)=O)[C@@H](C)O)[C@@H](C)O)[C@@H](C)O)[C@@H](C)O)[C@@H](C)O (H-ASGLSTAALGRLSQELHELQTYPRTETGSK([γGlu-C20 diacid])TY-NH2) | 4% | -5%
2 | 18 pM | 11 pM | 25 pM | > 45 h | 100% | ≥ 200 µM | ≥ 200 µM | ≥ 200 µM | ≥ 200 µM | ≥ 200 µM | 432 pM | 352 pM | 68 pM | ≥ 200 µM | ≥ 200 µM | ≥ 200 µM | 164 pM | 50 pM | CC(C)C[C@H](NC(=O)[C@H](C)NC(=O)[C@H](C)NC(=O)[C@@H](NC(=O)[C@H](CO)NC(=O)[C@H](CC(C)C)NC(=O)[C@H](CCC(=O)O)NC(=O)[C@H](CO)NC(=O)[C@H](C)NC(=O)COCCOCCNC(=O)COCCOCCNC(=O)COCCOCCNC(=O)CC[C@H](NC(=O)CCCCCCCCCCCCCCCCCCC(=O)O)C(=O)O)[C@@H](C)O)C(=O)NCC(=O)N[C@@H](CCCNC(=N)N)C(=O)N[C@@H](CC(C)C)C(=O)N[C@@H](CO)C(=O)N[C@@H](C)C(=O)N[C@@H](CCC(=O)O)C(=O)N[C@@H](CC(C)C)C(=O)N[C@@H](Cc1cnc[nH]1)C(=O)N[C@@H](CCC(=O)O)C(=O)N[C@@H](CC(C)C)C(=O)N[C@@H](C)C(=O)N[C@H](C(=O)N[C@@H](CC(C)C)C(=O)N1CCC[C@H]1C(=O)N[C@@H](CCCNC(=N)N)C(=O)N[C@H](C(=O)N[C@@H](CCC(=O)O)C(=O)N[C@H](C(=O)NCC(=O)N[C@@H](CO)C(=O)NCC(=O)N[C@@H](CO)C(=O)N1CCC[C@H]1C(N)=O)[C@@H](C)O)[C@@H](C)O)[C@@H](C)O ({C20 diacid-γGlu-AEEA-AEEA-AEEA}-ASELSTAALGRLSAELHELATLPRTETGSGSP-NH2) |  | 
